Experimental findings from ChEMBL document CHEMBL4033678, “A fragment-based approach leading to the discovery of a novel binding site and the selective CK2 inhibitor CAM4066” (Bioorg Med Chem, 2017) are described below.

This assay deals with Casein kinase II subunit alpha (Homo sapiens) (UniProt P68400).

SMILES strings stand for the structures. Activity calls are given as the source filed them. The rule behind the calls is not given here.

Chain of Casein kinase II subunit alpha (Homo sapiens) (P68400 whole entry, looked up): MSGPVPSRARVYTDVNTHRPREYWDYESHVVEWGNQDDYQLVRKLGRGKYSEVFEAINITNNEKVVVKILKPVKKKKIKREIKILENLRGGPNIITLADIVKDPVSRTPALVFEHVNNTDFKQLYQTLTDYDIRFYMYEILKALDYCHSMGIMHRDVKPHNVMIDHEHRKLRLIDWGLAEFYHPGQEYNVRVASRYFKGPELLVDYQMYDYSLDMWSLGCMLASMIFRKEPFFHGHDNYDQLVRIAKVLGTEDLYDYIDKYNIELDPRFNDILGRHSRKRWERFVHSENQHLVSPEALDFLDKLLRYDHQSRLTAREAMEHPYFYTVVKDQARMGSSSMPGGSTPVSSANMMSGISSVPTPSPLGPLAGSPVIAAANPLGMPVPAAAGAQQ

For `O=C(O)Cc1cc(=O)oc2ccccc12`, the deltaTm entry was “inactive”. With `O=C(O)c1ccc2ccccc2n1`, the deltaTm result was “inactive”. One may read the ΔTm as the shift of the melting midpoint relative to a reference. Take `Cc1cc(C(=O)O)ccc1N`: the ΔTm is 0.5 °C. For `O=C(O)c1cc2cc(F)ccc2[nH]1`, the shift in melting temperature (ΔTm) was 4.1 °C. `O=C(O)C(=O)Cc1ccccc1`: the ΔTm is -0.6 °C. In the case of `OC1CCC(N2CCNCC2)CC1` (stereo not drawn), the ΔTm was determined as 0.8 °C. Turning to `O=c1cc(O)c2ccccc2o1`, the ΔTm stood at 3.8 °C. For the compound `NNc1ccc(C(=O)O)cc1`, the ΔTm was 3.8 °C. For `O=C(O)c1ccc[nH]c1=O`, the ΔTm is -1.8 °C. Regarding `O=C(O)c1cc(=O)c2ccccc2o1`, the deltaTm entry is “inactive”. For `O=C(O)c1ccc2cc[nH]c2c1`, the thermal shift (ΔTm) worked out at 3 °C. For `O=C(O)Cc1ccc(Cl)c(Cl)c1`, the shift in melting temperature (ΔTm) was 0.7 °C.

For `O=C(O)c1cc2cc(O)ccc2[nH]1`, the deltaTm result is “inactive”. `COc1cc(CC(=O)O)ccc1O`: the deltaTm entry was “inactive”. `O=C(O)c1ccc(O)cc1O`: the ΔTm came out at 3.2 °C. Turning to `Nc1cc(Br)cnc1N`, the deltaTm entry was “inactive”. `O=C(O)c1cccc(C(=O)O)n1`: the ΔTm was -0.5 °C. `Nc1cccc(C(=O)O)c1`: the ΔTm worked out at 0 °C. `O=C(O)c1ccc(O)c(O)c1`: the ΔTm amounted to 2.4 °C. On to `CCCCOC(=O)N1CCC(N)CC1`, for which the ΔTm worked out at 0.3 °C. The same measure, in the same setting: next, `O=C(O)CCc1ccc(O)cc1`: 3.1 °C. On to `NC(=O)c1ccc(O)cc1`, for which the deltaTm result was “inactive”. Take `Cc1ccc(O)c(C(=O)O)c1`: the ΔTm was determined as 4.1 °C.
